The test system of the first test is phosphorylation of EGFR (Tyr1068) in NCI-H1975 cell line that harbors the EGFR L858R T790M mutations. As to the kind of experiment: NCI-H1975 pEGFR AlphaLISA assay. As to conditions: Homo sapiens, NCI-H1975, inhibition of phosphorylation of mutant EGFR in NCI-H1975 cells; 4-5 hours incubation; read-out: Ext pEGFR H1975. Type of test: cell-based. Here is the method: Inhibitory effects of the compounds of the disclosure were evaluated in cellular assays that measure level of intracellular phosphorylation of EGFR in NCI-H1975 cell line that harbors the EGFR L858R T790M mutations (ATCC, CRL-5908) using AlphaLISA sureFire ultra p-EGFR (Tyr1068) assay kit (PerkinElmer, ALSU-PEGFR-A50K). The NCI-H1975 cells were seeded at 12.5K/well in 22 μL into 384 well opti plate (PerkinElmer, 6007299) and adhering overnight at 37 C/5% CO2. On the next day, the test compounds and DMSO control were added into H1975 cell plate followed by incubation at 37 C/5% CO2 for 4-5 hours. The cells were then spin down in the 384-well plate and lysed with 10 μL of 1×AlphaLISA lysis buffer followed by shaking at 600 rpm for 10 minutes at room temperature. After that, 5 μL of an acceptor bead mix was added to each well followed by incubation at room temperature for 1.5-2 h in dark. Then 5 μL of a donor bead mix was added to each well followed by overnight incubation at room temperature in dark. On the next day, the plate was read at a compatible plate reader to obtain pEGFR signal. Percent of pEGFR inhibition was plotted against log concentration of compounds to generate IC50 values.
On the technique in general: Bead proximity is the source of the signal in Alpha formats.
On to `CO[C@@H]1CCN(c2nccc(Nc3cc4c(C(C)C)ccc(N5C[C@H](CS(C)(=O)=O)[C@H]5C)c4cn3)n2)C[C@H]1F` (single isomer, unassigned) [Compound 278, N-{2-[(3R,4R)-3-fluoro-4-methoxypiperidin-1-yl]pyrimidin-4-yl}-8-[(2R,3S)-3-(methanesulfonylmethyl)-2-methylazetidin-1-yl]-5-(propan-2-yl)isoquinolin-3-amine or N-{2-[(3S,4S)-3-fluoro-4-methoxypiperidin-1-yl]pyrimidin-4-yl}-8-[(2R,3S)-3-(methanesulfonylmethyl)-2-methylazetidin-1-yl]-5-(propan-2-yl)isoquinolin-3-amine], for which the IC50 was 20.1 to 30 nM.

Turning to `CO[C@@H]1CCN(c2nccc(Nc3cc4c(C(C)C)ccc(N5C[C@H](CS(C)(=O)=O)[C@H]5C)c4cn3)n2)C[C@@H]1F` [Compound 122, N-(2-((3S,4R)-3-fluoro-4-methoxypiperidin-1-yl)pyrimidin-4-yl)-5-isopropyl-8-((2R,3S)-2-methyl-3-((methylsulfonyl)methyl)azetidin-1-yl)isoquinolin-3-amine], the IC50 was not above 10 nM.

Turning to `CC(C)c1cnc(N2CC(CS(C)(=O)=O)C2)c2cnc(Nc3ccnc(N4CC[C@@H](O)[C@@](C)(F)C4)n3)cc12` (single isomer, unassigned) [Compound 67], the IC50 is not above 10 nM.

For `CC(C)c1ccc(N2CC(CS(C)(=O)=O)C2)c2cnc(Nc3ccnc(N4CC[C@H](O)[C@@](C)(F)C4)n3)cc12` (single isomer, unassigned) [Compound 61, (3S,4S)-3-fluoro-1-[4-({8-[3-(methanesulfonylmethyl)azetidin-1-yl]-5-(propan-2-yl)isoquinolin-3-yl}amino)pyrimidin-2-yl]-3-methylpiperidin-4-ol or (3R,4R)-3-fluoro-1-[4-({8-[3-(methanesulfonylmethyl)azetidin-1-yl]-5-(propan-2-yl)isoquinolin-3-yl}amino)pyrimidin-2-yl]-3-methylpiperidin-4-ol], the IC50 lay in the range of 30.1 to 50 nM.

Regarding `CO[C@H]1CCN(c2nccc(Nc3cc4c(C(C)C)ccc(N5C[C@H](CS(C)(=O)=O)[C@H]5C)c4cn3)n2)C[C@H]1F` [Compound 123, N-(2-((3R,4S)-3-fluoro-4-methoxypiperidin-1-yl)pyrimidin-4-yl)-5-isopropyl-8-((2R,3S)-2-methyl-3-((methylsulfonyl)methyl)azetidin-1-yl)isoquinolin-3-amine], the IC50 was not above 10 nM.

Staying with this test, now noted: inhibition of phosphorylation of mutant EGFR in NCI-H1975 cells; 4-5 hours incubation; read-out: Ext pEGFR H1975.
For the compound `CC(C)c1ccc(N2C[C@H](CS(C)(=O)=O)[C@H]2C)c2cnc(Nc3ccnc(N4CC[C@H](O)[C@@](C)(F)C4)n3)cc12` (single isomer, unassigned) [Compound 120, (3R,4R)-3-fluoro-1-[4-({8-[(2R,3S)-3-(methanesulfonylmethyl)-2-methylazetidin-1-yl]-5-(propan-2-yl)isoquinolin-3-yl}amino)pyrimidin-2-yl]-3-methylpiperidin-4-ol or (3S,4S)-3-fluoro-1-[4-({8-[(2R,3S)-3-(methanesulfonylmethyl)-2-methylazetidin-1-yl]-5-(propan-2-yl)isoquinolin-3-yl}amino)pyrimidin-2-yl]-3-methylpiperidin-4-ol], the IC50 lay within 10.1 to 20 nM.

`CO[C@@H]1CCN(c2nccc(Nc3cc4c(C(C)C)ccc(N5C[C@H](CS(C)(=O)=O)[C@H]5C)c4cn3)n2)C[C@H]1F` (single isomer, unassigned) [Compound 279, N-{2-[(3S,4S)-3-fluoro-4-methoxypiperidin-1-yl]pyrimidin-4-yl}-8-[(2R,3S)-3-(methanesulfonylmethyl)-2-methylazetidin-1-yl]-5-(propan-2-yl)isoquinolin-3-amine or N-{2-[(3R,4R)-3-fluoro-4-methoxypiperidin-1-yl]pyrimidin-4-yl}-8-[(2R,3S)-3-(methanesulfonylmethyl)-2-methylazetidin-1-yl]-5-(propan-2-yl)isoquinolin-3-amine]: the IC50 was in the range of 20.1 to 30 nM.

The values above are taken from patent US12172983B2, “EGFR inhibitors” (Blueprint Medicines Corporation, priority 2019, dated 2024).
